# Target: T1, CXCR3 (Homo sapiens, UniProt P49682)
# T1 construct: host or cells: CHO-K1 (cAMP Hunter CHOK1 CXCR3 Gi cell line)
# T1 sequence (P49682 1-368): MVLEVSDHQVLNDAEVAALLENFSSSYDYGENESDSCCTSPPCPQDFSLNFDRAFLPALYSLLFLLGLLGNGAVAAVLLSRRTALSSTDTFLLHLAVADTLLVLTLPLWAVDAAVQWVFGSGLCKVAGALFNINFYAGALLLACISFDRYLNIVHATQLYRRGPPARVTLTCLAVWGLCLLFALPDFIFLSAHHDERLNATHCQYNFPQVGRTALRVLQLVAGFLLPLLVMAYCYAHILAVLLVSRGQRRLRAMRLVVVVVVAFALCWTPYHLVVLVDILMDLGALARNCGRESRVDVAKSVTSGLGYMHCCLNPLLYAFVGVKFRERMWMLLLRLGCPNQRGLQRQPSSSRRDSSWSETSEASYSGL
# Test: CXCR3 cAMP agonist assay (cAMP Hunter CHOK1 CXCR3 Gi cell line, forskolin-stimulated, HitHunter cAMP detection)
# Type: cell-based
# Details: cAMP Hunter CHOK1 CXCR3 Gi cells, 20 μM forskolin, 30 minutes; read-out: Activity (CXCR3 cAMP agonist assay compound EC50)
# Procedure: The cAMP Hunter™ CHOK1 CXCR3 Gi cell line was purchased from DiscoveRx. Cells were seeded into a 96-well white assay plate at 50,000 cells/well/94 μl assay buffer (Hank's Buffered Saline Solution, 10 mM HEPES, 0.1% fatty acid-free BSA, pH 7.4) and immediately assayed in suspension. Forskolin was added to 20 μM (5 μl of 400 μM stock) simultaneously with a 12-point dose response curve of compound at 0-10 μM (1 μl of 100× stock in 100% DMSO), and cells were incubated for 30 minutes. A cAMP standard curve is run as an assay control. A CXCL11 dose response was included to determine maximum efficacy. Direct detection of cAMP was carried out using the DiscoveRx HitHunter cAMP kit according to manufacturer's instructions, and luminescence was read using a SpectraMax M5 plate reader.
row,EC50 [µM],SMILES
1,< 0.05,Cc1cc(NC(=O)[C@H](CCN)NC(=O)[C@@H]2Cc3ccccc3CN2C(=O)CCC(=O)N2CC3CCCCC3C2)ccc1Cl (stereo partly drawn) [Compound 12-55]
2,< 0.05,Cc1cc(NC(=O)[C@H](CCN)NC(=O)[C@@H]2Cc3ccccc3CN2C(=O)CCC(=O)N2CC(C(C)(C)C)C2)ccc1Cl [Compound 12-40]
3,< 0.05,Cc1cccc(NC(=O)[C@H](CCN)NC(=O)[C@@H]2Cc3ccccc3CN2C(=O)CCC(=O)c2ccccc2)c1Cl [Compound 14-6]
4,0.05 to 0.25,CN1CCN(CC[C@H](NC(=O)[C@@H]2Cc3ccccc3CN2C(=O)CCC(=O)c2ccccc2)C(=O)Nc2ccc3c(c2)CCC3)CC1 [Compound 24-2]
5,> 0.5,Cc1cc(NC(=O)[C@@H](Cc2cc3ccccc3[nH]2)NC(=O)[C@@H]2Cc3ccccc3CN2C(=O)CCC(=O)c2ccccc2)ccc1Cl [Compound 4-5]
6,0.05 to 0.25,Cc1cc(NC(=O)[C@H](Cc2ccnc(N)c2)NC(=O)[C@@H]2Cc3ccccc3CN2C(=O)CCC(=O)c2ccccc2)ccc1Cl [Compound 3-10]
7,< 0.05,Cc1cc(NC(=O)[C@H](CCN)NC(=O)[C@@H]2Cc3ccccc3CN2C(=O)CCC(=O)N2CCCCC23CCC3)ccc1Cl [Compound 12-72]
8,< 0.05,Cc1cc(NC(=O)[C@H](CCN)NC(=O)[C@@H]2Cc3ccccc3CN2C(=O)CCC(=O)N2CCC3(CCC3)C2)ccc1Cl [Compound 12-94]
9,< 0.05,NCC[C@H](NC(=O)[C@@H]1Cc2ccccc2CN1C(=O)CCC(=O)c1ccccc1)C(=O)Nc1ccc2ccccc2c1 [Compound 2-28]
10,> 0.5,NCCCC[C@H](NC(=O)[C@@H]1Cc2ccccc2CN1C(=O)CCC(=O)c1ccccc1)C(=O)Nc1cccc(F)c1 [Compound 1-8]
11,0.05 to 0.25,Cc1cc(NC(=O)[C@H](Cc2ccccn2)NC(=O)[C@@H]2Cc3ccccc3CN2C(=O)CCC(=O)c2ccccc2)ccc1Cl [Compound 3-5]
12,0.05 to 0.25,Cc1cccc(NC(=O)[C@H](CCN)NC(=O)[C@@H]2Cc3ccccc3CN2C(=O)CCC(=O)c2ccccc2)c1C#N [Compound 14-19]
13,0.05 to 0.25,CCC(CC)C1CCCCN1C(=O)CCC(=O)N1Cc2ccccc2C[C@H]1C(=O)N[C@@H](CCN)C(=O)Nc1ccc(Cl)c(Cl)c1F (stereo partly drawn) [Compound 15-23]
14,0.05 to 0.25,NCC[C@H](NC(=O)[C@@H]1Cc2ccccc2CN1C(=O)CCC(=O)c1ccccc1)C(=O)Nc1cc(Cl)c(Cl)cc1F [Compound 2-20]
15,< 0.05,C[C@H]1CN(C(=O)CCC(=O)N2Cc3ccccc3C[C@H]2C(=O)N[C@@H](CCN)C(=O)Nc2ccc(Cl)c(Cl)c2F)CCN1C [Compound 15-63]
16,0.25 to 0.5,COc1cc2c(cc1NC(=O)[C@H](CCN)NC(=O)[C@@H]1Cc3ccccc3CN1C(=O)CCC(=O)c1ccccc1)CCCC2 [Compound 2-59]
17,0.05 to 0.25,"Cc1cc(NC(=O)C(CC2CC[N+](C)(C)CC2)NC(=O)[C@@H]2Cc3ccccc3CN2C(=O)CCC(=O)c2ccccc2)ccc1Cl (mixture of isomers) [Compound 6-2, 4-((S)-3-((4-chloro-3-methylphenyl)amino)-3-oxo-2-((S)-2-(4-oxo-4-phenylbutanoyl)-1,2,3,4-tetrahydroisoquinoline-3-carboxamido)propyl)-1,1-dimethylpiperidin-1-ium iodide]"
18,0.25 to 0.5,CC(C)(C)CNC(=O)CCC(=O)N1Cc2ccccc2C[C@H]1C(=O)NC1(C(=O)Nc2ccc(Cl)c(Cl)c2F)CCNCC1 [Compound 12-129]
19,0.05 to 0.25,NCC[C@H](NC(=O)[C@@H]1Cc2ccccc2CN1C(=O)CCC(=O)c1ccccc1)C(=O)Nc1ccc(Cl)c(C(F)(F)F)c1 [Compound 2-4]
20,0.05 to 0.25,Cc1cc(NC(=O)C(NC(=O)[C@@H]2Cc3ccccc3CN2C(=O)CCC(=O)c2ccccc2)C2CCN(C)CC2)ccc1Cl (mixture of isomers) [Compound 6-5]
21,< 0.05,CN(CCC(C)(C)C)C(=O)CCC(=O)N1Cc2ccccc2C[C@H]1C(=O)N[C@@H](CCN)C(=O)Nc1ccc(Cl)c(Cl)c1F [Compound 15-44]
22,< 0.05,NCC[C@H](NC(=O)[C@@H]1Cc2ccc(F)cc2CN1C(=O)CCC(=O)N1CCCC12CCC2)C(=O)Nc1ccc(Cl)c(Cl)c1F [Compound 15-59]
23,0.25 to 0.5,"NCC[C@H](NC(=O)[C@@H]1Cc2ccccc2CN1C(=O)CCC(=O)c1ccccc1)C(=O)Nc1cc(F)ccc1Cl [Compound 14-1, (S)—N—((S)-4-amino-1-((2-chloro-5-fluorophenyl)amino)-1-oxobutan-2-yl)-2-(4-oxo-4-phenylbutanoyl)-1,2,3,4-tetrahydroisoquinoline-3-carboxamide]"
24,0.25 to 0.5,NCCCC[C@H](NC(=O)[C@@H]1Cc2ccccc2CN1C(=O)CCC(=O)c1ccccc1)C(=O)Nc1ccccc1F [Compound 1-15]

row,EC50 [µM],SMILES
1,0.25 to 0.5,O=C(CCC(=O)N1Cc2ccccc2C[C@H]1C(=O)N[C@@H](CCN1CCCC(F)(F)C1)C(=O)Nc1ccc2c(c1)CCC2)c1ccccc1 [Compound 23-8]
2,0.05 to 0.25,NCC[C@H](NC(=O)[C@@H]1Cc2ccccc2CN1C(=O)CCC(=O)c1ccccc1)C(=O)Nc1ccc2ncccc2c1 [Compound 2-43]
3,< 0.05,NCC[C@H](NC(=O)[C@@H]1Cc2ccccc2CN1C(=O)CCC(=O)N1CCC2(CCC2)C1)C(=O)Nc1ccc(Cl)c(Cl)c1F [Compound 15-33]
4,0.05 to 0.25,CCOc1cccc(C(=O)CCC(=O)N2Cc3ccccc3C[C@H]2C(=O)N[C@@H](CCCCN)C(=O)Nc2ccc(Cl)c(C)c2)c1 [Compound 7-7]
5,0.05 to 0.25,Cc1cc(NC(=O)[C@H](CCN2CCOCC2)NC(=O)[C@@H]2Cc3ccccc3CN2C(=O)CCC(=O)c2ccccc2)ccc1Cl [Compound 5-4]
6,0.05 to 0.25,NCC[C@H](NC(=O)[C@@H]1Cc2ccccc2CN1C(=O)CCC(=O)c1ccccc1)C(=O)Nc1ccc2c(c1)C(=O)CC2 [Compound 2-68]
7,< 0.05,Cc1cc(NC(=O)[C@H](CCN)NC(=O)[C@@H]2Cc3ccccc3CN2C(=O)CCC(=O)N2CC(C)(c3ccccc3)C2)ccc1Cl [Compound 12-11]
8,< 0.05,Cc1c(Cl)ccc(NC(=O)[C@H](CCN)NC(=O)[C@@H]2Cc3ccccc3CN2C(=O)CCC(=O)c2ccccc2)c1Cl [Compound 14-3]
9,0.25 to 0.5,NCC[C@H](NC(=O)[C@@H]1Cc2ccccc2CN1C(=O)CCC(=O)c1ccccc1)C(=O)Nc1c(F)cccc1Cl [Compound 14-9]
10,< 0.05,CC[C@@H]1CN(C(=O)CCC(=O)N2Cc3ccccc3C[C@H]2C(=O)N[C@@H](CCN)C(=O)Nc2ccc(Cl)c(C)c2)CCN1C [Compound 12-151]
11,< 0.05,CC(C)C1CCN(C(=O)CCC(=O)N2Cc3ccccc3C[C@H]2C(=O)N[C@@H](CCN)C(=O)Nc2ccc(Cl)c(Cl)c2F)C1 (stereo partly drawn) [Compound 15-9]
12,0.25 to 0.5,COCCN(C)C(=O)CCC(=O)N1Cc2ccccc2C[C@H]1C(=O)N[C@@H](CCN)C(=O)Nc1ccc(Cl)c(C)c1 [Compound 12-113]
13,< 0.05,Cc1cc(NC(=O)[C@H](CCN)NC(=O)[C@@H]2Cc3ccccc3CN2C(=O)CCC(=O)N2CCCC2C(C)C)ccc1Cl (stereo partly drawn) [Compound 12-71]
14,0.25 to 0.5,NCC[C@H](NC(=O)[C@@H]1Cc2ccccc2CN1C(=O)CCC(=O)N1CCC[C@@H]1c1ccccc1)C(=O)Nc1ccc(Cl)c(Cl)c1F [Compound 12-148]
15,< 0.05,Cc1cc(NC(=O)[C@H](CCN)NC(=O)[C@@H]2Cc3ccccc3CN2C(=O)CCC(=O)N2CCC3(CC3)C2)ccc1Cl [Compound 12-69]
16,0.25 to 0.5,"Cc1cc(NC(=O)[C@H](CCCCN)NC(=O)[C@@H]2Cc3ccccc3CN2C(=O)CCC(=O)c2ccccc2)ccc1Cl (stereo in doubt) [Compound 4-2, (S)—N—((S)-6-amino-1-((4-chloro-3-methylphenyl)amino)-1-oxohexan-2-yl)-2-(4-oxo-4-phenylbutanoyl)-1,2,3,4-tetrahydroisoquinoline-3-carboxamide]"
17,0.05 to 0.25,Cc1cc(NC(=O)[C@H](Cc2cncs2)NC(=O)[C@@H]2Cc3ccccc3CN2C(=O)CCC(=O)c2ccccc2)ccc1Cl [Compound 5-3]
18,0.05 to 0.25,Cc1cc(NC(=O)[C@H](CCN)NC(=O)[C@@H]2Cc3ccccc3CN2C(=O)CCC(=O)N2CCC(C#N)C2)ccc1Cl (stereo partly drawn) [Compound 12-70]
19,0.05 to 0.25,Cc1cc(NC(=O)[C@H](CCN2CCNC(=O)C2)NC(=O)[C@@H]2Cc3ccccc3CN2C(=O)CCC(=O)c2ccccc2)ccc1Cl [Compound 17-3]
20,< 0.05,Cc1cc(NC(=O)[C@@H](CCN)NC(=O)[C@@H]2Cc3ccccc3CN2C(=O)CCC(=O)N2CCCOCC2)ccc1Cl [Compound 12-21]
21,< 0.05,NCC[C@H](NC(=O)[C@@H]1Cc2ccccc2CN1C(=O)CCC(=O)c1ccccc1)C(=O)Nc1cccc(Cl)c1F [Compound 2-34]
22,0.05 to 0.25,CCN1CCN(C(=O)CCC(=O)N2Cc3ccccc3C[C@H]2C(=O)N[C@@H](CCN)C(=O)Nc2ccc(Cl)c(C)c2)C(C)(C)C1 [Compound 12-126]
23,< 0.05,Cc1cc(NC(=O)[C@H](CCN)NC(=O)[C@@H]2Cc3ccccc3CN2C(=O)CCC(=O)N2CCC3CCCCC32)ccc1Cl (stereo partly drawn) [Compound 12-95]

row,SMILES,EC50 [µM]
1,Cc1cc(NC(=O)[C@H](CCN)NC(=O)[C@@H]2Cc3ccccc3CN2C(=O)CCC(=O)N2C3CCC2CN(C)C3)ccc1Cl [Compound 12-105],> 0.5
